Measured values: patent publication US4695545A, “Culture and process for producing A41030 antibiotics” (Eli Lilly and Company, priority 1984, dated 1987)
“And” between values parts separate entries of the source, which are not always exact repeats. Equal values may be shown once.

Columns and labels:
Propionibacterium acnes [1] = assay: MIC anaerobic bacteria, agar-dilution; format: cell-based; settings: Propionibacterium acnes 79; agar-dilution (Table 9)
[2] = test system: Fusobacterium necrophorum; assay: MIC anaerobic bacteria, agar-dilution; format: cell-based; settings: Fusobacterium necrophorum 6054A
Bacteroides vulgatis = assay: MIC anaerobic bacteria, agar-dilution; format: cell-based; settings: Bacteroides vulgatis 1211
Haemophilus influenzae = assay: MIC aerobic bacteria, standard agar-dilution assay; format: cell-based
Solubility in solvents = format: physicochemical; settings: qualitative
Excerpt: As many as seven antibiotic factors are recovered from the fermentation and are obtained as a mixture, the A41030 complex. It will be recognized that the ratio of the factors in the A41030 complex will vary, depending upon the fermentation conditions used. The individual factors A, B, C, D, E, F, and G are separated and isolated as individual compounds, as hereinafter described.

Serratia marcescens = assay: MIC aerobic bacteria, standard agar-dilution assay; format: cell-based; settings: Serratia marcescens X99, 24 hours
S. pyogenes = assay: In vivo oral activity against S. pyogenes in mice
Enterobacter aerogenes = assay: MIC aerobic bacteria, standard agar-dilution assay; format: cell-based; settings: Enterobacter aerogenes C32, 24 hours
Fusobacterium symbiosum = assay: MIC anaerobic bacteria, agar-dilution; format: cell-based; settings: Fusobacterium symbiosum 1470
Streptococcus pyogenes = assay: MIC aerobic bacteria, standard agar-dilution assay; format: cell-based; settings: Streptococcus pyogenes C203, 24 hours
Streptococcus pneumoniae = assay: MIC aerobic bacteria, standard agar-dilution assay; format: cell-based; settings: Streptococcus pneumoniae Park I, 24 hours
Enterobacter cloacae = assay: MIC aerobic bacteria, standard agar-dilution assay; format: cell-based
Clostridium difficile [3] = assay: MIC anaerobic bacteria, agar-dilution; format: cell-based; settings: Clostridium difficile 2994; agar-dilution (Table 9)
Clostridium perfringens = format: cell-based; settings: Clostridium perfringens 81; agar-dilution
Klebsiella pneumoniae = assay: MIC aerobic bacteria, standard agar-dilution assay; format: cell-based; settings: Klebsiella pueumoniae X68, 24 hours
[4] = test system: Peptococcus asaccharolyticus; assay: MIC anaerobic bacteria, agar-dilution; format: cell-based; settings: Peptococcus asaccharolyticus 1302
Clostridium septicum = assay: MIC anaerobic bacteria, agar-dilution; format: cell-based; settings: Clostridium septicum 1128
Peptococcus prevoti = assay: MIC anaerobic bacteria, agar-dilution; format: cell-based; settings: Peptococcus prevoti 1281
Clostridium difficile [5] = assay: MIC against Clostridium difficile strains, agar-dilution; format: cell-based
Excerpt: The A41030 antibiotic factors A, B, C, D, E, F, and G, are also active against a number of strains of Clostridium difficile, as determined by the agardilution method.

[6] = test system: Peptostreptococcus anaerobius; assay: MIC anaerobic bacteria, agar-dilution; format: cell-based; settings: Peptostreptococcus anaerobius 1428
Staphylococcus aureus = assay: MIC aerobic bacteria, standard agar-dilution assay; format: cell-based
[7] = test system: Staphylococcus epidermidis; assay: MIC aerobic bacteria, standard agar-dilution assay; format: cell-based
Citrobacter freundii = assay: MIC aerobic bacteria, standard agar-dilution assay; format: cell-based; settings: Citrobacter freundii CF17, 24 hours
Propionibacterium acnes [8] = assay: MIC against Propionibacterium acnes strains, 24-hour agar-dilution; format: cell-based
Excerpt: Antibiotic A41030 factors A, B and C have been tested and found to be active against a genus of anaerobic bacteria identified as Propionibacterium acnes.

Escherichia coli = assay: MIC aerobic bacteria, standard agar-dilution assay; format: cell-based
Bacteroides corrodens = assay: MIC anaerobic bacteria, agar-dilution; format: cell-based; settings: Bacteroides corrodens 1874
Salmonella typhi = assay: MIC aerobic bacteria, standard agar-dilution assay; format: cell-based
[9] = test system: Bacteroides melaninogenicus; assay: MIC anaerobic bacteria, agar-dilution; format: cell-based; settings: Bacteroides melaninogenicus 2736
[10] = test system: Peptostreptococcus intermedius; assay: MIC anaerobic bacteria, agar-dilution; format: cell-based; settings: Peptostreptococcus intermedius 1264
[11] = test system: Streptococcus sp. Group D; assay: MIC aerobic bacteria, standard agar-dilution assay; format: cell-based
[12] = Electrometric titration (pKa); format: physicochemical; settings: electrometric titration in 66% dimethylformamide in water
Excerpt: Antibiotic A41030 factor A is a white, crystalline solid.

For A41030 factor B, the MIC (Propionibacterium acnes [1]) was 16 µg/mL, the MIC [2] was 8 µg/mL and the MIC (Bacteroides vulgatis) was 32 µg/mL. The MIC (Haemophilus influenzae; Haemophilus influenzae 251, 24 hours) was 2 µg/mL, the MIC (Haemophilus influenzae; Haemophilus influenzae Brun, 24 hours) was 8 µg/mL and the “solubility (solvents)” value (Solubility in solvents) was “soluble in the same solvents as factor A”. The MIC (Serratia marcescens) was 128 µg/mL, the “in vivo oral activity” value (S. pyogenes) was > 300 mg./kg.×2 and the MIC (Enterobacter aerogenes) was 64 µg/mL. For the same substance, the MIC (Fusobacterium symbiosum) was 1.0 µg/mL, the MIC (Streptococcus pyogenes) was 0.25 µg/mL and the MIC (Streptococcus pneumoniae) was 0.5 µg/mL. The MIC (Enterobacter cloacae; Enterobacter cloacae 265A, 24 hours) was 128 µg/mL, the MIC (Enterobacter cloacae; Enterobacter cloacae EB5, 24 hours) was 128 µg/mL and the MIC (Clostridium difficile [3]) was 32 µg/mL. For the same substance, the MIC (Clostridium perfringens) was 0.5 µg/mL, the MIC (Klebsiella pneumoniae) was 128 µg/mL and the MIC [4] was ≤ 0.25 µg/mL. For the same substance, the MIC (Clostridium septicum) was 4 µg/mL, the MIC (Peptococcus prevoti) was ≤ 0.25 µg/mL and the MIC (Clostridium difficile [5]; Clostridium difficile 78) was 0.5 µg/mL. It also gave an MIC (Clostridium difficile [5]; Clostridium difficile 107B) of 0.5 µg/mL, an MIC (Clostridium difficile [5]; Clostridium difficile 111F) of 1.0 µg/mL and an MIC (Clostridium difficile [5]; Clostridium difficile 1153) of 1.0 µg/mL. For the same substance, the MIC (Clostridium difficile [5]; Clostridium difficile 2634) was 1.0 µg/mL, the MIC (Clostridium difficile [5]; Clostridium difficile 3424-5B) was 1.0 µg/mL and the MIC (Clostridium difficile [5]; Clostridium difficile 3816) was 1.0 µg/mL. For the same substance, the MIC (Clostridium difficile [5]; Clostridium difficile 3950D) was 1.0 µg/mL, the MIC (Clostridium difficile [5]; Clostridium difficile 6890) was 1.0 µg/mL and the MIC (Clostridium difficile [5]; Clostridium difficile 8484) was 1.0 µg/mL. It also gave an MIC (Clostridium difficile [5]; Clostridium difficile A-194) of 1.0 µg/mL, an MIC (Clostridium difficile [5]; Clostridium difficile A-195) of 1.0 µg/mL and an MIC (Clostridium difficile [5]; Clostridium difficile A-196) of 1.0 µg/mL. It also gave an MIC (Clostridium difficile [5]; Clostridium difficile A-279) of 1.0 µg/mL, an MIC (Clostridium difficile [5]; Clostridium difficile A-280) of 0.5 µg/mL and an MIC (Clostridium difficile [5]; Clostridium difficile A-281) of 1.0 µg/mL. It also gave an MIC (Clostridium difficile [5]; Clostridium difficile WAL-2112) of 1.0 µg/mL, an MIC (Clostridium difficile [5]; Clostridium difficile WAL-3657) of 1.0 µg/mL and an MIC (Clostridium difficile [5]; Clostridium difficile WAL-4268) of 0.5 µg/mL. For the same substance, the MIC [6] was ≤ 0.25 µg/mL, the MIC (Staphylococcus aureus; Staphylococcus aureus S13E, agar-dilution, 24 hours) was 0.125 µg/mL and the MIC (Staphylococcus aureus; in µg/mL) was 0.125 and 0.25. For the same substance, the MIC ([7]; Staphylococcus epidermidis EPI1, 24 hours) was 0.125 µg/mL, the MIC ([7]; Staphylococcus epidermidis EPI2, 24 hours) was 0.5 µg/mL and the MIC (Citrobacter freundii) was 128 µg/mL. The MIC (Propionibacterium acnes [8]; P. acnes strain 44) was 0.06 µg/mL, the MIC (Propionibacterium acnes [8]; P. acnes strain 79) was 0.06 µg/mL and the MIC (Propionibacterium acnes [8]; P. acnes strain 101) was 0.06 µg/mL. It also gave an MIC (Propionibacterium acnes [8]; P. acnes strain 103) of 0.06 µg/mL, an MIC (Propionibacterium acnes [8]; P. acnes strain 104) of 0.25 µg/mL and an MIC (Propionibacterium acnes [8]; P. acnes strain 105) of 0.06 µg/mL. The MIC (Propionibacterium acnes [8]; P. acnes strain 106) was 0.06 µg/mL, the MIC (Propionibacterium acnes [8]; P. acnes strain 107) was 0.06 µg/mL and the MIC (Propionibacterium acnes [8]; P. acnes strain 5170) was ≤ 0.03 µg/mL. It also gave an MIC (Propionibacterium acnes [8]; P. acnes strain 5176) of 0.06 µg/mL, an MIC (Propionibacterium acnes [8]; P. acnes strain 5187) of 0.06 µg/mL and an MIC (Propionibacterium acnes [8]; P. acnes strain 5191) of 0.06 µg/mL. It also gave an MIC (Propionibacterium acnes [8]; P. acnes strain 5197) of 0.06 µg/mL, an MIC (Propionibacterium acnes [8]; P. acnes strain 5226) of 0.5 µg/mL and an MIC (Propionibacterium acnes [8]; P. acnes strain 5227) of 0.06 µg/mL. For the same substance, the MIC (Propionibacterium acnes [8]; P. acnes strain 5228) was 0.5 µg/mL, the MIC (Propionibacterium acnes [8]; P. acnes strain 5229) was 0.25 µg/mL and the MIC (Propionibacterium acnes [8]; P. acnes strain 5246) was 0.125 µg/mL. For the same substance, the MIC (Propionibacterium acnes [8]; P. acnes strain 5292) was 0.06 µg/mL, the MIC (Escherichia coli; Escherichia coli EC14, 24 hours) was 128 µg/mL and the MIC (Escherichia coli; Escherichia coli N10, 24 hours) was 128 µg/mL. For the same substance, the MIC (Escherichia coli; Escherichia coli TEM, 24 hours) was 128 µg/mL, the MIC (Bacteroides corrodens) was 64 µg/mL and the MIC (Salmonella typhi; Salmonella typhi 1335, 24 hours) was > 128 µg/mL. For the same substance, the MIC (Salmonella typhi; Salmonella typhi X514, 24 hours) was > 128 µg/mL, the MIC [9] was 4 µg/mL and the MIC [10] was 0.5 µg/mL. The MIC ([11]; Streptococcus sp. Group D 9960, 24 hours) was 1 µg/mL, the MIC ([11]; Streptococcus sp. Group D X66, 24 hours) was 1 µg/mL and the “pKa, first titratable group” value [12] was “about 5.6”. The “pKa, second titratable group” value [12] was ~7.5 and the “possibly additional pKa's” value ([12]; stated as possible) was > 10.
